From patent US20260241012A1, “1,8-NAPHTHYRIDIN-2-ONE HETEROBIFUNCTIONAL BCL6 DEGRADERS” (Treeline Biosciences, Inc., priority 2022, published 2026) come the findings set out here.

This assay has as its target T1, N-terminal HiBiT tagged BCL6 (Homo sapiens, UniProt P41182).
T1 construct: expressed in transfected cells; host or cells: HT1080 (ATCC CCL-121), stably transduced with lentivirus pLV-UBC-N-HiBiT-BCL6-PGK-puro
The assay is described as follows: HiBiT based degradation assay. The settings on record: HT1080 cells expressing N-terminal HiBiT tagged BCL6, 5 hours of incubation; for Ymin (5 hr): BCL6 degradation normalized with DMSO control; for DC50: four-parameter logistic model, read-out: EC50 (5 hr). In kind it is cell-based. Summed up:
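Degradation measured by luminescence from the Nano-Glo HiBiT lytic reagent (15 min, room temperature), normalized to DMSO controls and fitted to a four-parameter curve.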
On the technique in general: HiBiT is a short tag that completes a luciferase, so light tracks the accessible tagged protein.

Each structure is given as a SMILES string.

As to `CNC(=O)COc1cc2cc(Nc3nc(N4CCC(CN5CCN(c6cccc7c(C8CCC(=O)NC8=O)nn(C)c67)C[C@H]5CO)CC4)ncc3Cl)cnc2n(C(C)C)c1=O` (stereo partly drawn) [Compound 231a, 2-[[6-[[5-chloro-2-[4-[[(2S)-4-[3-(2,6-dioxo-3-piperidyl)-1-methyl-indazol-7-yl]-2-(hydroxymethyl)piperazin-1-yl]methyl]-1-piperidyl]pyrimidin-4-yl]amino]-1-isopropyl-2-oxo-1,8-naphthyridin-3-yl]oxy]-N-methyl-acetamide], the “Ymin (5 hr)” value is “++++ (Ymin < 30%)” and the DC50 is 10 to 100 nM.
As for `CNC(=O)COc1cc2cc(Nc3nc(N4CCC(CN5CCN(c6cccc7c(C8CCC(=O)NC8=O)nn(C)c67)C[C@@H]5CO)CC4)ncc3Cl)cnc2n(C(C)C)c1=O` (stereo partly drawn) [Compound 231b, 2-[[6-[[5-chloro-2-[4-[[(2R)-4-[3-(2,6-dioxo-3-piperidyl)-1-methyl-indazol-7-yl]-2-(hydroxymethyl)piperazin-1-yl]methyl]-1-piperidyl]pyrimidin-4-yl]amino]-1-isopropyl-2-oxo-1,8-naphthyridin-3-yl]oxy]-N-methyl-acetamide], the “Ymin (5 hr)” value is on record as “++++ (Ymin < 30%)” and the DC50 was under 10 nM.
For `CNC(=O)COc1cc2cc(Nc3nc(N4CCC(CN5CCN(c6ccc7c(C8CCC(=O)NC8=O)nn(C)c7c6)C[C@H]5CO)CC4)ncc3Cl)cnc2n(C(C)C)c1=O` (stereo partly drawn) [Compound 232a, 2-[[6-[[5-chloro-2-[4-[[(2S)-4-[3-(2,6-dioxo-3-piperidyl)-1-methyl-indazol-6-yl]-2-(hydroxymethyl)piperazin-1-yl]methyl]-1-piperidyl]pyrimidin-4-yl]amino]-1-isopropyl-2-oxo-1,8-naphthyridin-3-yl]oxy]-N-methyl-acetamide] the same measures were “+++ (30% ≤ Ymin < 50%)” and under 10 nM.
For `CNC(=O)COc1cc2cc(Nc3nc(N4CCC(CN5CCN(c6ccc7c(C8CCC(=O)NC8=O)nn(C)c7c6)C[C@@H]5CO)CC4)ncc3Cl)cnc2n(C(C)C)c1=O` (stereo partly drawn) [Compound 232b, 2-[[6-[[5-chloro-2-[4-[[(2R)-4-[3-(2,6-dioxo-3-piperidyl)-1-methyl-indazol-6-yl]-2-(hydroxymethyl)piperazin-1-yl]methyl]-1-piperidyl]pyrimidin-4-yl]amino]-1-isopropyl-2-oxo-1,8-naphthyridin-3-yl]oxy]-N-methyl-acetamide] the same measures were “+++ (30% ≤ Ymin < 50%)” and under 10 nM.
The corresponding values for `CNC(=O)COc1cc2cc(Nc3cc(N4CCN(CC5CCN(c6cccc7c(C8CCC(=O)NC8=O)nn(C)c67)CC5)[C@H](CO)C4)ncc3Cl)cnc2n(C(C)C)c1=O` (stereo partly drawn) [Compound 233a, 2-[[6-[[5-chloro-2-[(3S)-4-[[1-[3-(2,6-dioxo-3-piperidyl)-1-methyl-indazol-7-yl]-4-piperidyl]methyl]-3-(hydroxymethyl)piperazin-1-yl]-4-pyridyl]amino]-1-isopropyl-2-oxo-1,8-naphthyridin-3-yl]oxy]-N-methyl-acetamide] are “++++ (Ymin < 30%)” and 10 to 100 nM.
As to `CNC(=O)COc1cc2cc(Nc3nc(N4CCC(CN5CCCN(c6ccc7c(C8CCC(=O)NC8=O)nn(C)c7c6)CC5)CC4)ncc3Cl)cnc2n(C(C)C)c1=O` (stereo not shown) [Compound 235, 2-[[6-[[5-chloro-2-[4-[[4-[3-(2,6-dioxo-3-piperidyl)-1-methyl-indazol-6-yl]-1,4-diazepan-1-yl]methyl]-1-piperidyl]pyrimidin-4-yl]amino]-1-isopropyl-2-oxo-1,8-naphthyridin-3-yl]oxy]-N-methyl-acetamide], the “Ymin (5 hr)” value is listed as “+++ (30% ≤ Ymin < 50%)” and the DC50 was 10 to 100 nM.
As to `CNC(=O)COc1cc2cc(Nc3nc(N4CCC(CN5CCCN(c6cccc7c(C8CCC(=O)NC8=O)nn(C)c67)CC5)CC4)ncc3Cl)cnc2n(C(C)C)c1=O` (stereo not shown) [Compound 236, 2-[[6-[[5-chloro-2-[4-[[4-[3-(2,6-dioxo-3-piperidyl)-1-methyl-indazol-7-yl]-1,4-diazepan-1-yl]methyl]-1-piperidyl]pyrimidin-4-yl]amino]-1-isopropyl-2-oxo-1,8-naphthyridin-3-yl]oxy]-N-methyl-acetamide], the “Ymin (5 hr)” value is on record as “+++ (30% ≤ Ymin < 50%)” and the DC50 was under 10 nM.
`CNC(=O)COc1cc2cc(Nc3nc(N4CCC5(CCC(CN6CCC(c7ccc8c(C9CCC(=O)NC9=O)nn(C)c8c7)CC6)CC5)CC4)ncc3Cl)cnc2n(C(C)C)c1=O` (stereo not shown) [Compound 237, 2-((6-((5-chloro-2-(9-((4-(3-(2,6-dioxopiperidin-3-yl)-1-methyl-1H-indazol-6-yl)piperidin-1-yl)methyl)-3-azaspiro[5.5]undecan-3-yl)pyrimidin-4-yl)amino)-1-isopropyl-2-oxo-1,2-dihydro-1,8-naphthyridin-3-yl)oxy)-N-methylacetamide]: the “Ymin (5 hr)” value was “++++ (Ymin < 30%)” and the DC50 is under 10 nM.
The corresponding values for `CNC(=O)COc1cc2cc(Nc3nc(N4CCC5(CCN(CC6CCN(c7cc8c(cc7F)c(C7CCC(=O)NC7=O)nn8C)CC6)CC5)CC4)ncc3Cl)cnc2n(C(C)C)c1=O` (stereo not shown) [Compound 239, 2-((6-((5-chloro-2-(9-((1-(3-(2,6-dioxopiperidin-3-yl)-5-fluoro-1-methyl-1H-indazol-6-yl)piperidin-4-yl)methyl)-3,9-diazaspiro[5.5]undecan-3-yl)pyrimidin-4-yl)amino)-1-isopropyl-2-oxo-1,2-dihydro-1,8-naphthyridin-3-yl)oxy)-N-methylacetamide] are “++++ (Ymin < 30%)” and 10 to 100 nM.
For `CNC(=O)COc1cc2cc(Nc3nc(N4CCC5(CCC(CN6CCC(c7ccc8c(C9CCC(=O)NC9=O)nn(C)c8c7F)CC6)CC5)CC4)ncc3Cl)cnc2n(C(C)C)c1=O` (stereo not shown) [Compound 240, 2-((6-((5-chloro-2-(9-((4-(3-(2,6-dioxopiperidin-3-yl)-7-fluoro-1-methyl-1H-indazol-6-yl)piperidin-1-yl)methyl)-3-azaspiro[5.5]undecan-3-yl)pyrimidin-4-yl)amino)-1-isopropyl-2-oxo-1,2-dihydro-1,8-naphthyridin-3-yl)oxy)-N-methylacetamide] the same measures were “++++ (Ymin < 30%)” and 10 to 100 nM.
For `CNC(=O)COc1cc2cc(Nc3nc(N4CCN(CC5CCN(c6cccc7c(C8CCC(=O)NC8=O)nn(C)c67)CC5(F)F)CC4)ncc3Cl)cnc2n(C(C)C)c1=O` (stereo not shown) [Compound 241, 2-((6-((5-chloro-2-(4-((1-(3-(2,6-dioxopiperidin-3-yl)-1-methyl-1H-indazol-7-yl)-3,3-difluoropiperidin-4-yl)methyl)piperazin-1-yl)pyrimidin-4-yl)amino)-1-isopropyl-2-oxo-1,2-dihydro-1,8-naphthyridin-3-yl)oxy)-N-methylacetamide] the same measures were “++++ (Ymin < 30%)” and 10 to 100 nM.
